{"source": "patent US7122326B2", "about": "(Universite Louis Pasteur, priority 2001, dated 2006)", "key": {"[1]": {"test_system": "XA release in the PFC", "experiment": "XA release in prefrontal cortex, in vivo microdialysis", "set-up": "species or system rat", "experimental": "Male Wistar rats weighing 350–400 g were used for the experiments. Animals were housed individually in plastic cages with a light/dark cycle of 7 a.m./7 p.m. and 7 p.m./7 a.m. Animals had access to food and water ad libitum. Animal experiments were conducted in strict accordance with the requirements of the European Directive of 24 Nov. 1986 (86/609/EEC).\nThe experiments were carried out using an L-shaped cannula with a 4 mm tip. A polycarbonate-polyether dialysis membrane (500 μm) with a 20 Kda cutoff was used. The dialysis membrane was inserted in the prefrontal cortex (PFC) while one of the tips of the bipolar stimulation electrode was implanted in the PFC and the other in the VTA. The procedure was performed under ketamine anesthesia.\nThe experiments were carried out in conscious animals, 24 to 72 hours after the surgery. The perfusion medium had the following composition: 147 mM NaCl, 1.2 mM CaCl2, 1.2 mM MgCl2, and 4.0 mM KCl, pH 6.5. In the case of stimulations at high potassium concentrations, sodium ion concentrations were lowered to the same value. In the case of stimulations in the absence of calcium ions, 2.0 mM EGTA was added to the dialysis medium. Dialysates were collected at a rate of 2 μl/min, every 5 minutes, and immediately stored in liquid nitrogen up to analysis.\nThese two compounds were quantitatively determined by HPLC chromatography with electrochemical detection. The chromatographic system consisted of a 25 cm×4.6 mm Hypersyl C18 column, maintained at constant temperature. The mobile phase was 0.05 M NaH2PO4 buffer+0.1 mM EDTA and 6% methanol. Peaks were identified by comparison with the retention times measured on calibration standard solutions.\nThe VTA was stimulated for a period of 10 minutes, with bursts of thirty 0.5-msec pulses for 100 millisec, intensity 100 or 200 μA and at a frequency of 25 Hz."}, "[2]": {"test_system": "xanthurenic acid binding site(s)", "experiment": "[3H]-XA binding to synaptic membranes, without ions", "set-up": "species or system rat", "conditions": "for [^3H]-XA binding displacement, screening: screening at 200 μM concentration"}, "[3]": {"biological_target": "xanthurenic acid binding site(s)", "experiment": "[3H]-XA binding to synaptic membranes in the presence of copper ions", "set-up": "species or system rat", "conditions": "read-out: EC50 (50% effective concentration) on XA binding; Tris maleate pH 6.5, room temperature, 400 nM [^3H]-XA (+20 μM xanthurenic acid) (FIG. 17)"}, "[4]": {"biological_target": "xanthurenic acid binding site(s)", "experiment": "Effect of ions on xanthurenic acid binding to synaptic membranes", "set-up": "species or system rat", "conditions": "read-out: EC50 of ions on xanthurenic acid binding"}, "[5]": {"test_system": "XA transport system", "experiment": "XA transport in differentiated NCB-20 cells", "format": "cell-based", "experimental": "The cell culture was prepared by using a culture dish of NCB-20 cells at 80% confluence. The culture medium was removed and replaced with 10 ml of DMEM supplemented with 10% FCS. Cells were then detached and suspended by repeated passage of the medium through a 2 mm gauge needle. Cells were then counted in a hemocytometer. The final suspension was adjusted to a cell density of 3.10^4 cells/ml in DMEM medium supplemented with 10% FCS and 1 mM cAMP. Petri dishes were seeded with 2 ml of this suspension and incubated at 37° C. in a moisture-saturated CO2 atmosphere. Cells were used four days after inoculation.\nThe culture medium of 4-day NCB-20 cell cultures differentiated in cAMP was replaced by one of the buffer solutions described hereinabove (Krebs with or without Na^+, to respectively evaluate Na^+-dependent active transport and passive transport, which occurs mainly through diffusion) according to the type of experiment planned. Culture dishes were placed in a water bath at 37° C. for 10 minutes. The buffer was then replaced by the same buffer solution containing [^3H]-XA and XA at concentrations ranging from […]. [^3H]-XA was present at very low concentration and served only as a tracer of the cold (non-radiolabelled) XA. After 1 minute of incubation, the solutions were aspirated and the cells washed three times for 10 seconds with 1 ml of the same buffer (Krebs with or without Na^+), kept on ice. Active transport requires energy (ATP) and is markedly slowed at temperatures below 37° C. The washed cell layer was frozen in dishes then, the next day, distilled water was added to obtain a solution of cellular debris containing the intracellular radiolabel ([^3H]-XA). Freezing facilitated homogenization by repeated passage of the solution through a pipette. A 900 μl aliquot was added to scintillation fluid (Rotiszint®, 4 ml). The remainder of the solution was sampled to assay protein by the BCA method (Uptima). The radioactivity measured in the scintillation counter was converted by means of a suitable calibration curve into picomoles of XA taken up by the cells per mg of protein.\nFor each incubation time, transport was measured on nine dishes of NCB-20 cells with Na^+ and without Na^+. Ten different time points were studied: 0-10-30 seconds and 1, 2, 3, 5, 8, 10, 12 minutes. Four different experiments were carried out.\nFor each XA concentration, XA transport was measured on nine dishes of NCB-20 cells with Na^+ and nine dishes without Na^+. Seven different concentrations were tested: 1-5-12.5-25-50-100-200 μM. Four independent experiments were carried out.\nFour milliliters of scintillator were added to the tubes containing 900 μl of the cell suspension obtained. The control tube contained 900 μl of doubly-distilled water, and the tubes used to measure specific activity contained 10 μl of the radioactive solutions used as reagent during the experiment and 890 μl of doubly-distilled water. The tubes were closed, vortexed and left overnight at 4° C. before being counted in the scintillation counter. This count measures intracellular radioactivity which is directly proportional to the quantity of XA that entered the cell through passive or active transport. To calculate the amount of active transport, passive transport (Krebs without Na^+) is simply subtracted from total transport (Krebs with Na^+).\nOther endogenous molecules which might be transported by the XA transporter were tested. […] The results are shown in the histogram in FIG. 34 as the percentage entering the cells relative to transport in the presence of radiolabelled XA alone (=100%)."}, "[6]": {"test_system": "rat", "experiment": "Rotations in rats with unilateral 6-OHDA lesions", "format": "in vivo", "conditions": "6-OHDA-lesioned rats, four weeks after lesion; apomorphine s.c. (0.1 and 1.0 mg/kg)"}, "[7]": {"test_system": "dopaminergic neurons", "experiment": "Residual dopamine content after 6-OHDA lesion", "format": "in vivo, rat"}, "[8]": {"conditions": "unilateral 6-OHDA lesion of VTA and SNc, ±SEM (n=3)"}}, "note": "“Also recorded” adds a separate entry of the source. Where two headings read alike, the source gives them in different places."}
{"compound": "veratrine", "values": [{"measurement": "XA release in the PFC, % of baseline", "setting": "[1]; 50 μM in the probe for 20 minutes, after 20 minutes", "result": "approximately 600%"}]}
{"compound": "Nc1c(O)cccc1C(=O)O", "note": "[3-hydroxyanthranilic acid]", "values": [{"measurement": "[^3H]-XA binding displacement, screening", "setting": "[2]", "result": "None of these compounds caused significant displacement"}]}
{"compound": "[Cl][Cu][Cl]", "note": "[copper ions, CuCl2]", "values": [{"measurement": "EC50", "setting": "[3]", "result": 33.4, "unit": "µM"}, {"measurement": "EC50", "setting": "[4]; 50 mM Tris maleate pH 6.5, 0° C., 200 nM [^3H]-XA (FIG. 14)", "result": "~100", "unit": "µM"}]}
{"compound": "O=C(O)c1ccccn1", "note": "[picolinic acid]", "values": [{"measurement": "[^3H]-XA binding displacement, screening", "setting": "[2]", "result": "None of these compounds caused significant displacement"}]}
{"compound": "N[C@@H](Cc1c[nH]c2ccccc12)C(=O)O", "note": "[L-tryptophan]", "values": [{"measurement": "inhibition of cellular transport of XA", "setting": "[5]", "result": "good inhibitors; also recorded: inhibit this transport"}]}
{"compound": "CN1CCc2cccc3c2[C@H]1Cc1ccc(O)c(O)c1-3", "note": "[apomorphine]", "values": [{"measurement": "number of controlateral rotations", "setting": "[6]", "result": "130±45", "unit": "turns/15 minutes"}]}
{"compound": "[Cl-].[Cl-].[Zn+2]", "note": "[zinc ions, ZnCl2]", "values": [{"measurement": "EC50", "setting": "[4]; pH 6.5", "result": "~500", "unit": "µM"}, {"measurement": "potentiation of XA transport", "setting": "[5]; ions present in the medium (FIG. 34)", "result": "highly significant potentiation"}]}
{"compound": "Nc1ncnc2nc[nH]c12", "note": "[adenine]", "values": [{"measurement": "affinity for the xanthurenic acid site / inhibition of tritiated XA binding", "setting": "[2]", "result": "showed significant affinity for the xanthurenic acid site and inhibited the binding of tritiated XA"}]}
{"compound": "Nc1ccccc1C(=O)C[C@H](N)C(=O)O", "note": "[L-kynurenin]", "values": [{"measurement": "[^3H]-XA binding displacement, screening", "setting": "[2]", "result": "None of these compounds caused significant displacement"}]}
{"compound": "Br.NCCc1cc(O)c(O)cc1O", "note": "[6-OHDA, 6-hydroxydopamine hydrobromide]", "values": [{"measurement": "residual dopamine content, damaged VTA —SNc", "setting": "[7]; [8]", "result": "32±31 pmoles/g of wet tissue"}, {"measurement": "residual dopamine content, damaged striatum", "setting": "[7]; [8]", "result": "261±123 pmoles/g of wet tissue"}, {"measurement": "change of dopamine content, damaged versus intact striatum", "setting": "[7]; unilateral 6-OHDA lesion, p=0.0033", "result": "−98", "unit": "%"}, {"measurement": "change of dopamine content, damaged versus intact VTA —SNc", "setting": "[7]; unilateral 6-OHDA lesion, p=0.0157", "result": "−95", "unit": "%"}]}
{"compound": "Nc1ncnc2c1ncn2[C@@H]1O[C@H](CO)[C@@H](O)[C@H]1O", "note": "[adenosine]", "values": [{"measurement": "affinity for the xanthurenic acid site / inhibition of tritiated XA binding", "setting": "[2]", "result": "showed significant affinity for the xanthurenic acid site and inhibited the binding of tritiated XA"}]}
{"compound": "Nc1ncnc2c1ncn2[C@@H]1O[C@H](COP(=O)(O)OP(=O)(O)OP(=O)(O)O)[C@@H](O)[C@H]1O", "note": "[adenosine triphosphate]", "values": [{"measurement": "affinity for the xanthurenic acid site / inhibition of tritiated XA binding", "setting": "[2]", "result": "showed significant affinity for the xanthurenic acid site and inhibited the binding of tritiated XA"}]}
{"compound": "NC1=N[C@H](O)[C@H]2[C@H]3O[C@]4(O)O[C@@H]([C@@H](O)[C@@]2(N1)[C@@H]4O)[C@]3(O)CO", "note": "[tetrodotoxin]", "values": [{"measurement": "XA release in PFC induced by electrical stimulation of the VTA", "setting": "[1]; rat, in vivo", "result": "completely blocked"}]}
{"compound": "Nc1c(O)cccc1C(=O)CC(N)C(=O)O", "note": "(racemic) [3OH-D,L-kynurenin]", "values": [{"measurement": "[^3H]-XA binding displacement, screening", "setting": "[2]", "result": "None of these compounds caused significant displacement"}]}
{"compound": "O=C(O)c1cc(=O)c2ccccc2[nH]1", "note": "[kynurenic acid]", "values": [{"measurement": "[^3H]-XA binding displacement, screening", "setting": "[2]", "result": "no displacement of [^3H]-XA from its binding site(s) but rather a potentiation of this binding"}, {"measurement": "inhibition of cellular transport of XA", "setting": "[5]; NCB-20 cells (FIG. 34)", "result": "good inhibitors"}]}
{"compound": "N[C@@H](Cc1ccc(O)cc1)C(=O)O", "note": "[L-tyrosine]", "values": [{"measurement": "inhibition of cellular transport of XA", "setting": "[5]; NCB-20 cells (FIG. 34)", "result": "good inhibitors"}, {"measurement": "inhibition of cellular transport of XA", "setting": "[5]; NCB-20 cells (FIG. 34), listed as tyrosine", "result": "inhibit this transport"}]}
{"compound": "Nc1ncnc2c1ncn2[C@@H]1O[C@H](COP(=O)(O)OP(=O)(O)O)[C@@H](O)[C@H]1O", "note": "[adenosine diphosphate]", "values": [{"measurement": "affinity for the xanthurenic acid site / inhibition of tritiated XA binding", "setting": "[2]", "result": "showed significant affinity for the xanthurenic acid site and inhibited the binding of tritiated XA"}]}
{"compound": "[Cl-].[K+]", "note": "[KCl]", "values": [{"measurement": "XA release in the PFC extracellular medium, % of the baseline value", "setting": "[1]; 100 mM KCl in the dialysis probe for 5 minutes, after 40 minutes", "result": 250, "unit": "%"}]}
{"compound": "N[C@@H](Cc1c[nH]c2ccc(O)cc12)C(=O)O", "note": "[5-hydroxy-L-tryptophan]", "values": [{"measurement": "[^3H]-XA binding displacement, screening", "setting": "[2]", "result": "None of these compounds caused significant displacement"}]}
{"compound": "O=CC[C@@H](O)[C@H](O)[C@H](O)CO", "note": "[2-deoxyglucose]", "values": [{"measurement": "decrease in XA transport", "setting": "[5]; cellular energy production blocked (FIG. 34)", "result": "~50", "unit": "%"}]}
